Test results: patent US20210128680A1, “METHOD FOR TREATING CARDIOPULMONARY DISORDER” (Chang Gung University, priority 2019, published 2021)
Entries after “also recorded” stand apart in the source; their conditions may differ.

Legend:
[1] = tested on: MCT PASMCs; test: BrdU incorporation cell proliferation assay, MCT PASMCs; assay type: cell-based, rat; details: FIG. 5 panel B
Protocol: (§1) PASMCs were isolated from lungs of MCT-treated or control rats using the explant method, as described previously (Lai Y J et al. Am J Respir Crit Care Med. 2008, 178(2):188-96). To culture PASMCs, the PA was dissected from lung and cardiac tissues. The pulmonary arterial tissue was cut into small pieces and suspended in Dulbecco's modified Eagle's medium (DMEM) (Gibco) containing 100 U/mL penicillin, 100 µg/mL streptomycin (Gibco), and 20% fetal bovine serum (FBS) (Gibco). We observed a decrease in desmin, a smooth muscle cell gene marker, at passage 3. Therefore, rat PASMCs were used before passage 3 for all of the in vitro experiments. Characterization of PASMCs was performed by immunocytochemical staining with anti-α-SM-actin (Sigma-Aldrich) and anti-desmin (NeoMakers) antibodies.
(§2) The proliferative activity of PASMCs and the effects of the lumikine were determined by an ELISA-based 5-bromo-2-deoxyuridine (BrdU) incorporation assay kit (Roche Diagnostics Co.) according to the manufacturer's instructions.
(§3) Proliferation of PASMC is critical to the development of PAH. To characterize whether lumikine affected the proliferation of PASMCs in PAH and non-PAH subjects, the PASMCs were isolated from rats with or without MCT induced PAH.

[2] = tested on: human PASMCs; test: Western blot of protein expression in human PASMCs under in vitro hypoxia; assay type: cell-based
Protocol: Human PASMCs were obtained from commercial sources (Lonza). Cells were grown in SMC growth medium (5% FBS, 1 μg/ml hydrocortisone, 10 ng/ml human epidermal growth factor, 3 ng/ml basic fibroblast growth factor, 10 μg/ml heparin, 10 μg/ml gentamycin, and 0.25 μg/ml amphotericin) (Lonza) and were used between passages 4 and 7. Cells were starved in SMC medium with 0.1% FBS for 24 h before the experiment. Human PASMCs were cultured in the TGF-β 2.5 ng/ml condition for 6 hours to determine the effect of lumikine on the protein expressions.
Human PASMCs were cultured in the hypoxic condition for 24 hours to determine the effect of lumikine on the protein expressions. Hypoxia was created in an incubator: 5% CO2+94% N2+[…], 37° C. Lumikine were dissolved in culture medium at a final concentration of 100 nM.
Tissue samples or cell samples were homogenized in lysis buffer containing 50 mM Tris-HCl, pH 7.4, 50 mM NaCl, 5 mM EDTA, 1% Triton X-100, 0.05% SDS, 50 mM NaF, 10 mM β-glycerophosphate, sodium pyrophosphate, 100 μM Na3VO4, and protease inhibitor cocktail (Calbiochem, Millipore). Immunoblotting was performed using anti-lumican (Abcam; 1:2000), ant-HIF-1α(Abeam; 1:1000), anti-p-AKT, or AKT (Cell Signaling; 1:1000), and anti-p-SMAD2 (Cell Signaling; 1:1000), as primary antibodies. Secondary antibodies specific for peroxidase-conjugated anti-mouse IgG (Jackson; 1:10000) or anti-rabbit IgG (Jackson; 1:10000) were used as needed. Blots were visualized using an enhanced chemi-luminescence detection system (Millipore). Samples were normalized to GAPDH (Santa Cruz; 1:10000) and quantified by densitometry.
In this example, in vitro hypoxic (1% oxygen) model was used to evaluate the effect of the present synthetic peptide—lumikine (SEQ ID NO: 2) on pulmonary arterial smooth muscle cell (PASMCs).

[3] = tested on: control (CON) PASMCs; test: BrdU incorporation cell proliferation assay, control PASMCs; assay type: cell-based, rat; details: compared with vehicle treatment, FIG. 5
Protocol: as §1, §2, §3

[4] = tested on: MCT PASMCs; test: pAKT expression in MCT PASMCs; assay type: cell-based, rat
Protocol: as §1
Tissue samples or cell samples were homogenized in lysis buffer containing 50 mM Tris-HCl, pH 7.4, 50 mM NaCl, 5 mM EDTA, 1% Triton X-100, 0.05% SDS, 50 mM NaF, 10 mM β-glycerophosphate, sodium pyrophosphate, 100 μM Na3VO4, and protease inhibitor cocktail (Calbiochem, Millipore). […] Blots were visualized using an enhanced chemi-luminescence detection system (Millipore). Samples were normalized to GAPDH (Santa Cruz; 1:10000) and quantified by densitometry.

[5] = tested on: hypoxia-induced PAH mice; test: Hypoxia-induced PAH mice: RV hypertrophy and pulmonary artery medial wall thickness; assay type: in vivo; details: for right ventricular (RV) weight (RV/LV+S ratio): hypoxia (10% O2) mice, 3 ng/kg/day, 28 days, FIG. 6 panel A
Protocol: Adult male Sprague-Dawley rats (200-250 g in body weight) were randomized assigned into two groups for treatment of 28 days after s.c. injection of saline or 60 mg/kg monocrotaline (MCT) (Sigma-Aldrich) to induce pulmonary hypertension (PH). Rats were examined after 3 weeks of treatment (on day 28). Hypoxic pulmonary vascular remodeling was induced by exposure of mice (8-week-old C57BL/6) to chronic hypoxia (10% 02) in a ventilated chamber, as described previously (Li H H et al. Am J Physiol Lung Cell Mol Physiol. 2017: ajplung 00245 2017). The chronic effects of lumikne were assessed in mice exposed to hypoxia for 28 days. Briefly, animals were kept in hypoxic conditions to develop pulmonary hypertension. […] All animal experimental protocols were reviewed and approved by the Chang Gung University IACUC. This study was carried out in strict accordance with the recommendations in the Guide for the Care and Use of Laboratory Animals of the National Institutes of Health. Housing and maintenance was provided by Chang Gung University, and all animals were fed a standard chow diet with free access to water. After sacrifice, the RV wall was separated from the LV wall and ventricular septum. Wet weight of the RV, free LV wall, and ventricular septum was determined and weighted. RV hypertrophy was expressed as the ratio of weight of the RV wall and that of the free LV wall and ventricular septum (LV+S). Fixation was performed by immersion of the lungs in a 10% paraformaldehyde solution. For paraffin embedding, the entire lungs were dissected in tissue blocks from all lobes. Sectioning at 5 μm was performed from all paraffin-embedded blocks. To assess the type of remodeling of muscular pulmonary arteries, the percentage of MWT was utilized to characterize vascular medial hypertrophy by α-SM-actin staining. Under 400× microscopic examination, MWT was defined as the distance between the internal and external elastic laminae using “ImageJ” software downloaded from the open source available from the internet. […]

O=S(=O)(NCCNC/C=C/c1ccc(Br)cc1)c1cccc2cnccc12 [H89, reference compound]
effect on lumikine inhibition of MCT PASMC proliferation ([1]; H89 with lumikine (100 nM)): reversed

lumikine: synthetic peptide X1EX2LRVANEVTLN (SEQ ID NO: 1) in which X1 is tyrosine (Y) and X2 is alanine (A) (YEALRVANEVTLN)
level of lumican ([2]; lumikine 100 nM, hypoxic condition 24 hours, FIG. 4 panel B): increase | level of HIF-1α ([2]; lumikine 100 nM, hypoxic condition 24 hours, FIG. 4 panel C): reduction | level of pSmad3 ([2]; lumikine 100 nM, hypoxic condition 24 hours, FIG. 4 panel D): reduction | level of pAKT ([2]; lumikine 100 nM, hypoxic condition 24 hours, FIG. 4 panel E): reduction | Smad4 ([2]; lumikine treatment, hypoxic condition, FIG. 4F): remained unaffected | serum-induced PASMC proliferation ([1]; 10% FBS): dose-dependently decrease; also recorded: inhibited significantly | proliferation of control PASMCs [3]: no significantly effects; also recorded: did not affect | pAKT expression [4]: reduced | right ventricular (RV) weight (RV/LV+S ratio) [5]: significantly reduced | right ventricular (RV) weight (RV/LV+S ratio) ([5]; listed as Lumikine): reduction | medial wall thickness (MWT) of the pulmonary artery ([5]; hypoxia mice, 3 ng/kg/day for 21 days (days 8-28), PAs 25-100 μm, FIG. 6 panel B): significantly reduction
